As usually defined, the stoichiometry N is the number of molecules, sites or subunits per partner or assembly.

In assay [1] the target is T1, StnABC complex (FAD / NADP(H) site in StnC) (Sporomusa ovata, UniProt A0A0U1KYI6).
T1 construct: gene SpAn4DRAFT_2937; native purification from S. ovata cytoplasm, untagged; tetramer of StnABC heterotrimers (D2); StnC 1172 amino acids; mildly BS3-crosslinked for cryo-EM; with Electron-bifurcating transhydrogenase subunit StnB (HydB / NuoF-like subunit); Electron-bifurcating transhydrogenase subunit StnA (HydC / NuoE-like, thioredoxin-like [2Fe-2S] subunit)
T1 sequence (A0A0U1KYI6 1-1172): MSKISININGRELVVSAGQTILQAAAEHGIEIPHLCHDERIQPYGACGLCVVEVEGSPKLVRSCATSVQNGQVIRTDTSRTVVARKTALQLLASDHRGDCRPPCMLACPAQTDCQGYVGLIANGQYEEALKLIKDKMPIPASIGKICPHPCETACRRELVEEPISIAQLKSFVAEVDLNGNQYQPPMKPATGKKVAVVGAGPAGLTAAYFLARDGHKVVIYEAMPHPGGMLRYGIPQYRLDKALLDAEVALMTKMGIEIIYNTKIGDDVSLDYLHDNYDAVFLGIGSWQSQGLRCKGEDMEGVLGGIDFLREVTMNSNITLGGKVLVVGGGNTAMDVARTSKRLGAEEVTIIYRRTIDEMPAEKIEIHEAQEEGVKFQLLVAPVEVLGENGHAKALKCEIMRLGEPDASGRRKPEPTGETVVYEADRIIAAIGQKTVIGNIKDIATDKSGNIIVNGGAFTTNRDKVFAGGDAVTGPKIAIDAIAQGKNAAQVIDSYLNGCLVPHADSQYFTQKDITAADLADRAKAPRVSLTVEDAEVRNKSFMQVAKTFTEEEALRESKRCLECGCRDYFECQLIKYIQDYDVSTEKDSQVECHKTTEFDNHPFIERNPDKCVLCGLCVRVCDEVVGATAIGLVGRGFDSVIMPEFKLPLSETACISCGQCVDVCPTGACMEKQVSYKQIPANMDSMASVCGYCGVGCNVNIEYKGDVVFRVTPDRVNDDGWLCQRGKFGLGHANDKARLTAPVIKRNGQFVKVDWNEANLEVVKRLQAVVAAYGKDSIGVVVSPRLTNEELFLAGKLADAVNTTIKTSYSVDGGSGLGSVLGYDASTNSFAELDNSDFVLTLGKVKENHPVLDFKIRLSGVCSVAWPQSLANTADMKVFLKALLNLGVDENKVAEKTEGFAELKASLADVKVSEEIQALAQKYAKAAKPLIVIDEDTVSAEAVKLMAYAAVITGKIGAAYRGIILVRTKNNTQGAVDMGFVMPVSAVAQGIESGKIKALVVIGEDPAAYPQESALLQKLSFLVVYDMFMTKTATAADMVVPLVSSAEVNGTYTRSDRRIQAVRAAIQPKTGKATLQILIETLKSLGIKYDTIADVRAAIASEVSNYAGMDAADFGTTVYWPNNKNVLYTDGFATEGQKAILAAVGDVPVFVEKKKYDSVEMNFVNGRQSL
T1 sequence (A0A0U1KYM9 1-584 partner): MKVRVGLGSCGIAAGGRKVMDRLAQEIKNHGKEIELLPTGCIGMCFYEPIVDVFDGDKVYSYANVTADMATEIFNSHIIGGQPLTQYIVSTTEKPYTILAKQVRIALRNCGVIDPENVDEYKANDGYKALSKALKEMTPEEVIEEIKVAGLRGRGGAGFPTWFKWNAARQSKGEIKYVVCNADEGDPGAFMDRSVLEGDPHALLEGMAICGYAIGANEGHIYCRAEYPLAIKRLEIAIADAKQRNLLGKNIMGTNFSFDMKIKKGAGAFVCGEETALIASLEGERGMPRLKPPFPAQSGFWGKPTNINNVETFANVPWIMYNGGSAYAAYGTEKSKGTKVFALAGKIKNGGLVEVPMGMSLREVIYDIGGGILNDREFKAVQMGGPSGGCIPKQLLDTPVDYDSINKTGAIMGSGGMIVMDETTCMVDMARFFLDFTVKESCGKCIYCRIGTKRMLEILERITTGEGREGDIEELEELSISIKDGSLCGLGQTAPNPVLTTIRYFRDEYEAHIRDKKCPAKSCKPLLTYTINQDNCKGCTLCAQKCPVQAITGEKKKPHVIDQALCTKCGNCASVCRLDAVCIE
T1 sequence (A0A0U1KYW8 1-178 partner): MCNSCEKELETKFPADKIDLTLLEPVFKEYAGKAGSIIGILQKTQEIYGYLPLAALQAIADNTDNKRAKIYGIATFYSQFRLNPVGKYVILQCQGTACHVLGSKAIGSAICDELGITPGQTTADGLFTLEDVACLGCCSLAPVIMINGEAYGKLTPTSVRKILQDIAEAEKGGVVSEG
Kind of assay: spectrophotometric, […] nm. As to conditions: 0.5 mM NADP+, 0.25 mM NADH, 30 uM reduced ferredoxin; pH 8, 50 C. The class given is biochemical.

In assay [2] the target is StnC subunit of the StnABC transhydrogenase complex from Sporomusa ovata (Sporomusa ovata). Kind of assay: cryo-EM structure; single-particle cryo-EM of the natively purified StnABC complex, mildly cross-linked, anoxic; state S1 without added FMN and substrates (3.2 Å) and state S2 with 10 µM FMN, 500 µM NAD+, 30 µM Fd, 500 µM NADPH (3.0 Å); D2 symmetry.
In assay [3] the target is T2, StnABC complex (FMN / NAD(H) site in StnB) (Sporomusa ovata, UniProt A0A0U1KYM9).
T2 construct: gene SpAn4DRAFT_2936; same complex as P1, other site; native purification from S. ovata, untagged; tetramer of StnABC heterotrimers; mildly BS3-crosslinked for cryo-EM; with Electron-bifurcating transhydrogenase subunit StnA (HydC / NuoE-like, thioredoxin-like [2Fe-2S] subunit)
T2 sequence (A0A0U1KYM9 1-584): T1 sequence (A0A0U1KYM9 1-584 partner)
T2 sequence (A0A0U1KYW8 1-178 partner): T1 sequence (A0A0U1KYW8 1-178 partner)
T2 sequence (A0A0U1KYI6 1-1172 partner): T1 sequence (A0A0U1KYI6 1-1172)
Description: spectrophotometric, […] nm. The class given is biochemical. As to conditions: 0.25 mM NADH, 0.5 mM NADP+, 30 uM reduced ferredoxin; pH 8, 50 C.

With `NC(=O)c1ccc[n+]([C@@H]2O[C@H](COP(=O)(O)OP(=O)(O)OC[C@H]3O[C@@H](n4cnc5c(N)ncnc54)[C@H](OP(=O)(O)O)[C@@H]3O)[C@@H](O)[C@H]2O)c1` [NADP^+], the “spectrophotometric, 340 nm” value in assay [1] is “catalysed the Fdred and NADH-dependent reduction of NADP^+”.
As for “StnC subunit of the StnABC transhydrogenase complex from Sporomusa ovata (natural protein)”, in assay [2], the stoichiometry N is 4.
On to `NC(=O)C1=CN([C@@H]2O[C@H](COP(=O)(O)OP(=O)(O)OC[C@H]3O[C@@H](n4cnc5c(N)ncnc54)[C@H](O)[C@@H]3O)[C@@H](O)[C@H]2O)C=CC1` [NADH], for which, in assay [3], the “spectrophotometric, 340 nm” value was “catalysed the Fdred and NADH-dependent reduction of NADP^+”.
